Assay results from a melting point compilation (Tetko et al.; mined from patent text by program, amines drawn as free bases though some values may be those of a salt).

SMILES	melting point [°C]
C[C@H]1N=C(c2ccccc2F)c2cc(N)ccc2N(C)C1=O	224 to 226
COc1cc(C)c(C(O)c2c(O)ccc(Cl)c2C)c(OC)c1OC (centres undefined)	140 to 142
CC1(C)CCC(C)(C)c2cc(CC#Cc3ccc(CO)c(O)c3)ccc21	94 to 95
O=[N+]([O-])C1(CNC(CO)(CO)CO)CCCCC1	110 to 113
N#CCC(=O)C(F)(F)C(F)(F)F	47 to 54
OCCCCNc1nnc(-c2ccc(F)c(F)c2Nc2ccc(I)cc2F)o1	82 to 83
Nc1nc2c(ncn2COCCCOC(=O)c2ccccc2)c(=O)[nH]1	198 to 201
CCOC(=O)Cc1cccc(-c2nc(COc3ccc(C=O)cc3OC)c(C)o2)c1	113 to 114
CCCCc1nc2c(N)nc3ccccc3c2o1	96 to 98
CS(=O)(=O)c1ccccc1OC(F)(F)F	44 to 46
CCOC(=O)C(C#N)(Cc1cc(OC)c(OC)c(OC)c1)C(OCC)OCC (centres undefined)	95 to 97
CCOC(=O)c1c(C(=O)OCC)c(-c2ccc3c(c2)OCO3)c2c3c(ccc2c1O)OCO3	192 to 194
O=C(O)C(O)Cc1ccccc1[N+](=O)[O-] (centres undefined)	95 to 98
O=C(O)c1cccc2c1CCCC2O (centres undefined)	160 to 162
CCCCCCCCn1c(C)cc2ccccc21	121 to 123
COc1ccc(CNc2nc(CCCC(=O)O)nc3sc(Cl)cc23)cc1Cl	114
CCOC(=O)c1ncn2c1[C@@H]1CCN1C(=O)c1c-2ccc(F)c1F	234 to 236
Nc1ccccc1C(=O)C1CCCCC1	74 to 75
CCOC(=O)c1cc(NCc2ccccc2)c(OCC(F)(F)F)c(S(N)(=O)=O)c1	163 to 165
CC(C)(C)c1cc(CCc2cc(C=O)cc(CCc3cc(C(C)(C)C)cc(C(C)(C)C)c3)c2)cc(C(C)(C)C)c1	74 to 75
CC(C)CNC(=O)C1=C(C(=O)Nc2cc(OC3CCC(C)C3)c(Cl)cc2F)CCCC1 (centres undefined)	144 to 147
CCOC(=O)c1cc(Cl)cnc1N	120 to 122

SMILES	melting point [°C]
CCn1cc(C(=O)O)c(=O)cc1-c1cc(OC)c(OC)c(OC)c1	200 to 201
N#CC(C(=O)NC1CC1)C(=O)C1CC1 (centres undefined)	136 to 138
N#Cc1ccc(-c2ccc(C#N)c(N)c2)cc1N	243
CC(C)c1nc(C(O)(C(F)(F)F)C(F)(F)F)[nH]c1-c1ccc([N+](=O)[O-])cc1	157 to 160
CCCCCC(O)CCn1[nH]c(=O)n(C)c1=O (centres undefined)	85 to 88
CCOC(=O)CC(NC(=O)c1ccccc1)C(=O)C(C)C (centres undefined)	44 to 46
C1=C(c2ccccc2)CSS1	122 to 124
Cc1ccc(C(=O)CBr)cc1S(N)(=O)=O	146 to 148
CC(C)COC[C@H](CC(C)C)NC(=O)[C@H]1O[C@@H]1C(=O)OC(C)C	36 to 38
CONc1nc(C#Cc2ccccc2)nc2c1ncn2[C@@H]1O[C@H](CO)[C@@H](O)[C@H]1O	175 to 177
N#CC(=NO)C(=O)NC(=O)NCCCCCC(N)=O	187 to 189
N#Cc1cnc2cnc(F)cc2c1O	214 to 215
COc1cccc2c1Cc1ccccc1C2(CCOS(C)(=O)=O)CCOS(C)(=O)=O	128 to 131
CCc1nc2c(N)nc3ccccc3c2n1CC1(O)CCS(=O)(=O)CC1	> 250
CC(=O)Nc1ccc(C(=O)O)c([N+](=O)[O-])c1	217 to 220
CCCCC(CC)n1nnc2c(Nc3c(Br)cc(OC)cc3OC)nc(C)cc21 (centres undefined)	127 to 128
CCSC(=O)OCOC(=O)c1ccco1	37.2 to 38.4
COc1ccnc(CSc2nc3cc4c(cc3[nH]2)C(C)(C)C(=O)C4(C)C)c1C	218 to 220
COC(C)=CC(=O)NC1(C)CCCCC1	105
CCCCCCCCCCCCCCCCN(CCCC)CCCCCCO	58 to 59
O=Cc1cc2cc(Cl)c(Cl)cc2nc1Cl	190 to 191
O=C(C1CCCCC1)C1CCN(S(=O)(=O)c2ccccc2)CC1	141 to 143

The next lines start with the values.

melting point [°C]	SMILES
82.7	Clc1ccc(C2(CBr)OCC(c3ccc(Cl)cc3Cl)O2)cc1 (centres undefined)
303 to 307	O=C(O)CCc1ccc(OCC2CCN(c3ccncc3)CC2)cc1
166 to 167	Cc1ccc2c(c1)S/C(=C(/N)c1ccccc1)C2=O
72 to 74	Cc1ccc(CN2CCC(O)CC2)cc1
269 to 271	CC(=O)N1CCN(c2cc3c(c(N)c2F)c(=O)c(C(=O)O)cn3C2CC2)CC1C (centres undefined)
75 to 76	COC(=O)CC(c1ccccc1)N1C(=O)c2ccccc2C1=O (centres undefined)
184 to 185	CC1CNc2c(C#N)cnn2C1c1cc(Cl)ccc1Cl (centres undefined)
108	Nc1cccc(CCN2CCN(c3nsc4ccccc34)CC2)c1
166 to 168	CCCCc1c(CN2C(=O)c3ccccc3C2=O)c(CC(C)C)nc2ccc(OCc3ccccc3)cc12
198 to 199	CC(C)(CCC#N)c1ccc(C(=O)Nc2cn3cc(Cl)ccc3n2)cc1
137 to 138	Fc1ccc(-c2ncn(C3CCNCC3)c2-c2ccnc(Oc3cccc(C(F)(F)F)c3)n2)cc1
168 to 169	COc1ccc(-c2cc3nc(N4CCCCC4)c4ccccc4c3nn2)cc1
157 to 160	COCOc1cc(Cl)ccc1-c1cc(-c2cccc(NC(=O)Cn3ccnc3)c2)c(C#N)c(NC(=O)c2ccco2)n1
120 to 121	O=C(NCCN1CCOCC1)c1ccc(Cl)cc1
218 to 225	CC(C)(C)c1cc(NC(=O)Nc2ccccc2C(=O)NC2CCN(C(c3ccccc3)c3ccccc3)CC2)cc(C(C)(C)C)c1O
159 to 162	CC(C)c1ccccc1N/C(S)=C(\C#N)C(=O)Nc1ccc(-c2ncn(-c3ccc(OC(F)(F)F)cc3)n2)cc1
160 to 161	O=C(NCCO)c1ccc(-c2cccc3cc(Cc4cccc(C(F)(F)F)c4)sc23)nc1
65 to 70	CCCCN(Cc1ccc(-c2ccccc2-c2nnn[nH]2)cc1)c1ncc(C(=O)OCC)s1
149 to 150	CC(=O)NC[C@H]1CN(c2ccc(N3CCC(n4nnnc4Cc4cccs4)CC3)c(F)c2)C(=O)O1
250 to 251	CC(C)(C)c1ccc(C(=O)Nc2cn3cc(F)ccc3n2)cc1
> 300	O=C(NCCCN1CCCCC1)c1cccc(Nc2ncnc3[nH]cc(C(=O)c4ccccc4)c23)c1
218	CN1CCN(C2=Nc3cc(Cl)c(Cl)cc3Nc3nn(C)nc32)CC1
210 to 212	O=C(NCc1ccc(Cl)cc1)c1cn2c(CO)cc3cc(CN4CCOCC4)cc(c1=O)c32
147 to 150	Cc1ccc(-c2nnc(N3CCC(O)C3)nc2-c2ccc(C)cc2)cc1 (centres undefined)
110 to 111	COCCOCC(=O)N1CCC(Oc2cc3ncnc(Nc4cccc(Cl)c4F)c3cc2OC)CC1
110 to 111	CCCC(=O)c1cnc2c(NCCCN3CCOCC3)cccc2c1Nc1ccccc1C
139 to 140	CC(=O)c1ccc(-c2ccc(CC(C)O)cc2)cc1 (single isomer, unassigned; (-))
216 to 219	Cc1ccc2c(c1)c1cc(C(=O)O)sc1n2C

melting point [°C]	SMILES
151 to 153	O=C(NCc1ccccc1)c1ccnc(NC(=O)c2ccc(OC(F)(F)F)cc2)c1
128 to 131	CC1=C(C(=O)CS(=O)(=O)NC(C)C)[C@@H](c2cccc([N+](=O)[O-])c2)C(C(=O)O[C@@H](C)c2ccccc2)=C(C)N1
223 to 225	Nc1nc(-c2cc(Cl)ccc2Cl)nc(N2CCC(=O)CC2)n1
217 to 218	COc1ccc(C(=O)NN=Cc2ccc3ccccc3n2)cc1
237 to 241	COc1cccc(CNC(=O)c2nc3scc(CCOc4ccc(C(=O)O)cc4)c3c(=O)[nH]2)c1
> 250	O=C(Nc1ccc(F)cc1)NN1CCN(C(=O)Cn2c(=O)sc3ccc(Cl)cc32)CC1
56.5 to 58	CN(C)CCOC(=O)c1cccc2cc(-c3ccccc3)oc12
107 to 109	O=C(Nc1ccccc1-c1nnn[nH]1)C(=O)N1CCC(Cc2ccc(F)cc2)CC1
224 to 225	O=C(Nc1ccc(C(=O)N2Cc3ccccc3Cc3ccccc32)cc1)c1ccccc1-c1ccccc1
205 to 206	CCOC(=O)c1cn2c3c(ccc(Cl)c3c1=O)OCC2C (centres undefined)
221	CCC(C(O)c1ccc(Cl)cc1)n1ncn(-c2ccc(N3CCN(C(=O)NC)CC3)cc2)c1=O (centres undefined)
265 to 270	COc1cc(Nc2nc3cccc(-c4ccc(NC(C)=O)cc4)c3o2)cc(OC)c1OC
183	O=C(c1ccc(O)cc1)c1cc(Cl)cc(Cl)c1
238 to 239	O=C(OCc1ccccc1)N1CCc2c(sc3nc(CN4C(=O)CCC4=O)c(Cl)c(-c4ccc(OCc5ccccc5)cc4)c23)C1
210 to 212	COc1cccc(Nc2cccc3c2C(=O)N(C2CCC(=O)NC2=O)C3=O)c1 (centres undefined)
> 230	Nc1ccc(-c2nc3c(O)cccc3c(=O)[nH]2)cc1
> 250	O=C(O)c1ccc(-c2cccc(C(=O)O)c2)cc1
216 to 217	Nc1sc2c(c1C(=O)c1ccc(Cl)cc1)CCN(C(=O)Nc1ccccc1)C2
143 to 144	O=C(NCCc1ccccc1)c1ccc(OC(F)(F)F)cc1
133 to 134	CNc1nc(C(C)c2ccc(-c3ccccc3)c(F)c2)c(C(=O)O)s1 (centres undefined)
190 to 196	C=C1CCc2c(N3CCC(O)C3)c(F)cc3c(=O)c(C(=O)O)cn1c23 (centres undefined)
97.5 to 98.5	O=S(=O)(c1nc(-c2ccccc2)c(-c2ccccc2)n1COCc1ccccc1)C(F)(F)C(F)F
148 to 151	CNS(=O)(=O)c1ccccc1Nc1nc(Nc2ccc3c(c2)CCCC(=O)N3CC(=O)N2CCN(C)CC2)ncc1Cl
134	CCOC(Cn1cc[nH]c1=O)c1ccc(OC)c(OC)c1 (centres undefined)
153 to 155	O=C1CC(c2ccccc2)C(=S)N1c1ccc(Cl)cc1 (centres undefined)
189 to 191	CCc1cc2c(s1)S(=O)(=O)Cc1cc(=O)n(-c3ccc(Cl)cc3)nc1-2
72 to 73	CC(=O)SC1CC(=O)N1C(Cl)C(=O)OCc1ccc([N+](=O)[O-])cc1 (centres undefined)
